Experimental data as given in US4431742A, “Radioreceptor assay for benzodiazepines in saliva” (The United States of America as represented by the …, priority 1981, dated 1984).

System: diazepam receptor (fresh rat frontal cortex)
Test: radioreceptor assay: inhibition of ^3 H-diazepam binding (selectivity, drugs incubated with saliva)
Conditions: 10^-5 M, ^3 H-diazepam 0.50 nM

Question: For `CN(C)CCCN1c2ccccc2Sc2ccc(Cl)cc21` [chlorpromazine], which “inhibition of ^3 H-diazepam binding compared with saliva itself” value (“inhibition … compared with saliva itself” for short) is on record?
Answer: failed to inhibit ^3 H-diazepam binding more than saliva itself

Question: With `O=c1[nH]c2ccccc2n1C1CCN(CCCC(c2ccc(F)cc2)c2ccc(F)cc2)CC1` [pimozide] as the compound, how does the “inhibition … compared with saliva itself” value read?
Answer: failed to inhibit ^3 H-diazepam binding more than saliva itself

Question: For `C#CCN(C)Cc1ccccc1` [pargyline], which “inhibition … compared with saliva itself” value is on record?
Answer: failed to inhibit ^3 H-diazepam binding more than saliva itself

Question: For `C=CCN1CC[C@]23CCCC[C@H]2[C@H]1Cc1ccc(O)cc13` [levallorphan], which “inhibition … compared with saliva itself” value is on record?
Answer: failed to inhibit ^3 H-diazepam binding more than saliva itself

Question: `CNCCCN1c2ccccc2CCc2ccccc21` [desmethylimipramine] was tested. Which “inhibition … compared with saliva itself” value did it give?
Answer: failed to inhibit ^3 H-diazepam binding more than saliva itself

System: benzodiazepine receptor (fresh rat frontal cortex)
Test: recovery of benzodiazepines pre-incubated with saliva, measured by benzodiazepine radioreceptor assay
Assay type: binding
Conditions: 100 nM diazepam pre-incubated with control saliva

Question: For `CN1C(=O)CN=C(c2ccccc2)c2cc(Cl)ccc21` [diazepam], which “maximum percentage lowering of binding vs drug added directly with no saliva present” value is on record?
Answer: equivalent
